Counter-ions that a name gives are not always drawn. Like-named read-outs stand apart in the source and are kept apart here.
Columns and labels:
Acute toxicity in rats = assay: Acute toxicity in rats; set-up: species or system Sprague Dawley albino rats; details: rat, in vivo; for LD50 at 240 h: 10 days observation, read-out: DL50
From the text: Sprague Dawley albino rats having an average weight of about 150 g, subdivided into groups of 10 animals (5 males and 5 females) were used for each dose and for each method of administration.
The methods of administration were: oral by means of a gastric probe, intramuscular and endovenous into the caudal vein.
(§1) The observation time after administration was 10 days.

physchem = details: solid storage
pH of aqueous solution = type: physicochemical
Method: The pH of an aqueous saturated solution of glucosamine-SP at 20° C. is 3.0±0.2.

Acute toxicity in mice = assay: Acute toxicity in mice; set-up: species or system Swiss NMRI mice; details: mouse, in vivo; for LD50 at 240 h: 10 days observation, read-out: DL50
From the text: Swiss NMRI mice having an average weight of 20±2 g, subdivided in groups of 10 animals (5 females and 5 males) were used for each dose and for each method of administration.
The methods of administration were: oral by means of gastric probe, intramuscular and endovenous into the caudal vein.
as §1

mice-embryo fibroblast [1] = assay: Stimulation of the production of tissue-bound GAG in mice-embryo fibroblast cultures, uptake of ^35 S; type: cell-based, mice (strain C57 BL/6 stCrl)
Method: (§2) For this purpose, primary cultures of mice-embryo fibroblasts (strain C57 BL/6 stCrl) were prepared by mechanical and enzymatic dissociation (in Trypsin Versene mixture-Microbiological Associates) of the embryos taken from the mother on the 18th day of pregnancy. The culture medium is the Eagle medium modified by Dulbecco and supplemented with 15% of calf foetus serum. The incubation atmosphere consists of 5% of carbon dioxide in air at 37° C. 24 hours after innoculation, the medium is replaced by a new medium containing the drug under examination and the radioactive precursor (Na2^35 SO4) for the measurement of the synthesis both of soluble and tissue-bound GAG; the culture is left to incubate for a further 24 hours and then the culture medium (containing the soluble GAG) and fibroblasts (containing the tissue-bound GAG) are separated.
(§3) The soluble GAG are isolated from the culture medium by precipitation with a solution of 5% trichloroacetic acid in ice-water while the fibroblast residues, containing the tissue-bound GAG, after repeated washings with physiological solutions, are dissolved in [sequence] or VERSENE.
(§4) The quantity of ^35 S incorporated both in the soluble GAG and in the tissue-bound GAG are evaluated by the usual scintillation methods and expressed in cpm (counts per minute).
(§5) The tests were carried out five times for each sample in order to allow the results to be evaluated statistically.

mice-embryo fibroblast [2] = assay: Stimulation of the production of soluble GAG in mice-embryo fibroblast cultures, uptake of ^35 S; type: cell-based, mice (strain C57 BL/6 stCrl)
Method: as §2, §3, §4, §5

[3] = tested on: granuloma from cotton pellets; assay: Anti-inflammatory activity, granuloma induced by cotton pellets; type: in vivo, female albino rats of the Sprague Dawley strain; details: for Average dry weight of the granuloma (average ± s.e.): in mg (unit assumed)
Method: The test consists of evaluating the capacity of the substances under examination to inhibit the formation of granuloma following the subcutaneous implantation of extraneous bodies (in this case, cotton pellets). […] One group of animals was used as a control. […] After the subcutaneous implant of 2 cotton pellets each having a weight of 20 mg into the dorsal region, the animals were administered daily, for 4 consecutive days, with the substances under examination in the doses given above.

[4] = Solubility at 25° C. (w/v), saturated solutions, Elson-Morgan colorimetric method; type: physicochemical; details: for solubility thermodynamic: w/v
Method: Solubility (at 25° C.--w/v).
This test was carried out by preparing saturated solutions of glucosamine-SP in various solvents and determining the concentration of the glucosamine by the Elson-Morgan colorimetric method mentioned above.

[5] = im, intramuscular, max. dose 3750 mg/kg
[6] = iv, endovenous, max. dose 1875 mg/kg
[7] = 375 mg/kg/os daily, 4 days (= 300 mg/kg glucosamine sulphate)
[8] = 750 mg/kg/os daily, 4 days (= 600 mg/kg glucosamine sulphate)

For N[C@H]1C(O)O[C@H](CO)[C@@H](O)[C@@H]1O (stereo partly shown) [Glucosamine-SP, mixed salt of glucosamine sulphate and sodium chloride], which LD50 at 240 h (Acute toxicity in rats; im, intramuscular) is on record?
The LD50 at 240 h was > 3750 mg/kg.

And the mortality at 240 h (Acute toxicity in rats; [5])?
The mortality at 240 h was 0%.

And the LD50 at 240 h (Acute toxicity in rats; iv, endovenous)?
Its LD50 at 240 h is > 1880 mg/kg.

And the mortality at 240 h (Acute toxicity in rats; [6])?
Its mortality at 240 h is 0%.

What about the LD50 at 240 h (Acute toxicity in rats; oral) of the same compound?
Its LD50 at 240 h is > 6250 mg/kg.

What about the mortality at 240 h (Acute toxicity in rats; oral, max. dose 6250 mg/kg) of the same compound?
The mortality at 240 h was 0%.

What about the degraded at 8760 h (physchem; 85% rh) of the same compound?
Its degraded at 8760 h is 3 to 4%.

And the remaining at 36 h (physchem; Titre of glucosamine)?
Its remaining at 36 h is 100%.

What about the remaining at 1152 h (physchem; Titre of glucosamine) of the same compound?
The remaining at 1152 h was 101%.

What about the “pH of an aqueous saturated solution” value (pH of aqueous solution; 20° C.) of the same compound?
The value was 3.0±0.2.

What about the “natural pH at the concentrations used” value (pH of aqueous solution; injectable phial concentrations) of the same compound?
Its value is “about 3”.

What about the LD50 at 240 h (Acute toxicity in mice; im, intramuscular) of the same compound?
The LD50 at 240 h was > 3750 mg/kg.

What about the mortality at 240 h (Acute toxicity in mice; [5]) of the same compound?
The mortality at 240 h was 0%.

What about the LD50 at 240 h (Acute toxicity in mice; iv, endovenous) of the same compound?
Its LD50 at 240 h is > 1880 mg/kg.

What about the mortality at 240 h (Acute toxicity in mice; [6]) of the same compound?
The mortality at 240 h was 0%.

What about the LD50 at 240 h (Acute toxicity in mice; oral) of the same compound?
The LD50 at 240 h was > 6250 mg/kg.

And the mortality at 240 h (Acute toxicity in mice; oral, max. dose 6250 mg/kg)?
The mortality at 240 h was 0%.

And the “Tissue-bound GAG synthesis” value (mice-embryo fibroblast [1]; 12.5 γ/ml)?
The value was 5490 ± 604 cpm.

And the “Tissue-bound GAG synthesis” value (mice-embryo fibroblast [1]; 62.5 γ/ml)?
Its value is 7780 ± 612 cpm.

And the “Tissue-bound GAG synthesis” value (mice-embryo fibroblast [1]; 125 γ/ml)?
The value was 8320 ± 1295 cpm.

And the activation at 12.5 µg/mL (mice-embryo fibroblast [1]; Mus musculus, Fibroblast, 24 h, 12.5 γ/ml, read-out: Δ % over non-treated controls, tissue-bound GAG)?
Its activation at 12.5 µg/mL is 17.3%.

What about the activation at 62.5 µg/mL (mice-embryo fibroblast [1]; Mus musculus, Fibroblast, 24 h, 62.5 γ/ml, read-out: Δ % over non-treated controls, tissue-bound GAG) of the same compound?
The activation at 62.5 µg/mL was 66.2%.

What about the activation at 125 µg/mL (mice-embryo fibroblast [1]; Mus musculus, Fibroblast, 24 h, 125 γ/ml, read-out: Δ % over non-treated controls, tissue-bound GAG) of the same compound?
Its activation at 125 µg/mL is 77.8%.

And the “Soluble GAG synthesis, average ± s.e.” value (mice-embryo fibroblast [2]; 12.5 γ/ml)?
Its value is 6750 ± 718 cpm.

And the “Soluble GAG synthesis, average ± s.e.” value (mice-embryo fibroblast [2]; 62.5 γ/ml)?
Its value is 12730 ± 1201 cpm.

What about the “Soluble GAG synthesis, average ± s.e.” value (mice-embryo fibroblast [2]; 125 γ/ml) of the same compound?
The value was 12440 ± 1473 cpm.

What about the activation at 12.5 µg/mL (mice-embryo fibroblast [2]; Mus musculus, Fibroblast, 24 h, 12.5 γ/ml, read-out: Δ % over non-treated controls, soluble GAG) of the same compound?
Its activation at 12.5 µg/mL is 15.8%.

And the activation at 62.5 µg/mL (mice-embryo fibroblast [2]; Mus musculus, Fibroblast, 24 h, 62.5 γ/ml, read-out: Δ % over non-treated controls, soluble GAG)?
Its activation at 62.5 µg/mL is 118%.

And the activation at 125 µg/mL (mice-embryo fibroblast [2]; Mus musculus, Fibroblast, 24 h, 125 γ/ml, read-out: Δ % over non-treated controls, soluble GAG)?
The activation at 125 µg/mL was 113%.

What about the “% Inhibition of granuloma” value [3, 7] of the same compound?
The value was 38.7%.

What about the “Average dry weight of the granuloma (average ± s.e.)” value [3, 7] of the same compound?
Its value is 94.6 ± 10.7.

And the “% Inhibition of granuloma” value [3, 8]?
Its value is 58.0%.

And the “Average dry weight of the granuloma (average ± s.e.)” value [3, 8]?
The value was 64.8 ± 7.0.

And the Appearance (15° C., 30% R.H., 0 days)?
Its Appearance is 1.

And the Titre of glucosamine (15° C., 30% R.H., 0 days)?
Its Titre of glucosamine is 101.2%.

And the Appearance (15° C., 30% R.H., 7 days)?
The Appearance was 1.

And the Appearance (15° C., 30% R.H., 15 days)?
Its Appearance is 1.

And the Appearance (15° C., 30% R.H., 30 days)?
Its Appearance is 1.

What about the Appearance (15° C., 30% R.H., 60 days) of the same compound?
Its Appearance is 1.

What about the Appearance (15° C., 30% R.H., 120 days) of the same compound?
Its Appearance is 1.

What about the Appearance (15° C., 30% R.H., 360 days) of the same compound?
The Appearance was 1.

What about the Appearance (15° C., 45% R.H., 0 days) of the same compound?
Its Appearance is 1.

What about the Titre of glucosamine (15° C., 45% R.H., 0 days) of the same compound?
The Titre of glucosamine was 100.7%.

What about the Appearance (15° C., 45% R.H., 7 days) of the same compound?
The Appearance was 1.

What about the Appearance (15° C., 45% R.H., 15 days) of the same compound?
The Appearance was 1.

What about the Appearance (15° C., 45% R.H., 30 days) of the same compound?
The Appearance was 1.

What about the Appearance (15° C., 45% R.H., 60 days) of the same compound?
Its Appearance is 1.

What about the Appearance (15° C., 45% R.H., 120 days) of the same compound?
Its Appearance is 1.

And the Appearance (15° C., 45% R.H., 360 days)?
The Appearance was 1.

What about the Appearance (15° C., 60% R.H., 0 days) of the same compound?
The Appearance was 1.

What about the Titre of glucosamine (15° C., 60% R.H., 0 days) of the same compound?
Its Titre of glucosamine is 101.2%.

And the Appearance (15° C., 60% R.H., 3 days)?
Its Appearance is 1.

What about the Appearance (15° C., 60% R.H., 6 days) of the same compound?
The Appearance was 1.

What about the Appearance (15° C., 60% R.H., 12 days) of the same compound?
The Appearance was 1.

What about the Appearance (15° C., 60% R.H., 24 days) of the same compound?
Its Appearance is 1.

And the Appearance (15° C., 60% R.H., 36 days)?
Its Appearance is 1.

And the Appearance (15° C., 60% R.H., 48 days)?
Its Appearance is 1.

And the Appearance (25° C., 30% R.H., 0 days)?
Its Appearance is 1.

What about the Appearance (25° C., 30% R.H., 7 days) of the same compound?
Its Appearance is 1.

And the Appearance (25° C., 30% R.H., 15 days)?
The Appearance was 1.

And the Appearance (25° C., 30% R.H., 30 days)?
The Appearance was 1.

And the Appearance (25° C., 30% R.H., 60 days)?
The Appearance was 1.

And the Appearance (25° C., 30% R.H., 120 days)?
Its Appearance is 1.

What about the Appearance (25° C., 30% R.H., 360 days) of the same compound?
Its Appearance is 1.

What about the Appearance (25° C., 45% R.H., 0 days) of the same compound?
The Appearance was 1.

What about the Titre of glucosamine (25° C., 45% R.H., 0 days) of the same compound?
The Titre of glucosamine was 98.9%.

What about the Appearance (25° C., 45% R.H., 3 days) of the same compound?
The Appearance was 1.

And the Appearance (25° C., 45% R.H., 6 days)?
The Appearance was 1.

What about the Appearance (25° C., 45% R.H., 12 days) of the same compound?
Its Appearance is 1.

What about the Appearance (25° C., 45% R.H., 24 days) of the same compound?
Its Appearance is 1.

And the Appearance (25° C., 45% R.H., 36 days)?
Its Appearance is 1.

And the Appearance (25° C., 45% R.H., 48 days)?
The Appearance was 1.

What about the Appearance (25° C., 60% R.H., 0 hours) of the same compound?
The Appearance was 1.

And the Titre of glucosamine (25° C., 60% R.H., 0 hours)?
The Titre of glucosamine was 100.7%.

What about the Appearance (25° C., 60% R.H., 2 hours) of the same compound?
The Appearance was 1.

What about the Appearance (25° C., 60% R.H., 4 hours) of the same compound?
Its Appearance is 1.

What about the Appearance (25° C., 60% R.H., 8 hours) of the same compound?
The Appearance was 1.

And the Appearance (25° C., 60% R.H., 16 hours)?
Its Appearance is 1.

And the Appearance (25° C., 60% R.H., 24 hours)?
Its Appearance is 1.

And the Appearance (25° C., 60% R.H., 36 hours)?
Its Appearance is 1.

What about the “Preservation after one year” value (25° C., 60% relative humidity, one year) of the same compound?
The value was “perfectly preserved”.

And the Colour change (40° C., 85% relative humidity, about 12 months)?
Its Colour change is “slight darkening of the colour”.

What about the “Change in the subsequent 12 months” value (40° C., 85% relative humidity, months 12 to 24) of the same compound?
Its value is “remains constant”.

What about the “Appearance scale value assigned in all the tests” value (all temperature/humidity conditions of Tables 1 to 6) of the same compound?
The value was 1.

And the “Sensitivity to ambient relative humidity” value (even at high temperatures)?
Its value is “practically negligible”.

What about the Titre of glucosamine (solid storage, 8 h) of the same compound?
The Titre of glucosamine was 101.2%.

And the Titre of glucosamine (solid storage, 24 h)?
Its Titre of glucosamine is 99.2%.

And the Titre of glucosamine (solid storage, 1152 h)?
The Titre of glucosamine was 98.4%.

And the Titre of glucosamine (solid storage, 1440 h)?
The Titre of glucosamine was 98.6%.

And the “Solubility (in words)” value ([4]; benzene, chloroform, carbon tetrachloride, methylene chloride, ligroin, ethyl ether)?
Its value is “insoluble”.

And the solubility thermodynamic ([4]; organic solvent or mixture, acetone, acetonitrile, tetrahydrofuran, dioxan (each))?
Its solubility thermodynamic is < 0.1 mg/mL.

And the solubility thermodynamic ([4]; organic solvent or mixture, ethanol)?
Its solubility thermodynamic is ~0.3 mg/mL.

And the solubility thermodynamic ([4]; organic solvent or mixture, methanol)?
Its solubility thermodynamic is ~10 mg/mL.

What about the solubility thermodynamic ([4]; water) of the same compound?
Its solubility thermodynamic is ~400 mg/mL.
